From patent US11800869B2, “Use of 6-oxo-1,4,5,6-tetrahydropyridazine-3-carboxylic acid, 1-methyl 6-oxo-1,4,5,6-tetrahydropyridazine-3-carboxylic acid and 1-alkyl-6-oxo-1,4,5,6-tetrahydropyridazine-3-carboxylic acid for improving growth performance in plants” (Advanced Crop Chem LLP, priority 2020, dated 2023)

Key:
Type in all cases: in vivo
[1] = test system: Winter wheat variety AWC 13; test: Wheat seed treatment, greenhouse, root biomass (Example 1); settings: seed treatment 10g per 1 ton of seed; greenhouse 21° C; 30 days after planting; untreated 0.65
Protocol: Wheat seeds were treated with 6-oxo-1,4,5,6 tetrahydropyridazine-3-carboxylic acid (THP) and treated plants to examine the impact on shoot and root biomass. Winter wheat variety AWC 13 seeds were treated with either 6-oxo-1,4,5,6-tetrahydropyridazine-3-carboxylic acid (THP) or 1-methyl 6-oxo-1,4,5,6 tetrahydropyridazine-3-carboxylic acid (MTHP) at an effective rate of 10g diluted in 2 L water plus 0.25% Nouryon wetter and applied to 1 ton of seed. These seed were planted in coarse river sand and grown in a greenhouse under ambient light at the greenhouse at 21° C. Plants were irrigated every other day with water containing 50% strength Hoaglands solution. Plants were assessed for emergence and biomass accumulation 30 days after planting. The plants from seeds treated with 6-oxo-1,4,5,6-tetrahydropyridizin-3-carboxylic acid or 1-methyl 6-oxo-1,4,5,6 tetrahydropyridazine-3-carboxylic acid had larger root biomasses (0.83, 0.85 g, dry weight/plant) compared with plants from untreated seeds (0.65 g dry weight/plant).

[2] = test system: wheat plants (Variety Skyfall); test: Foliar treatment of greenhouse grown wheat, foliar and root biomass (Example 4); settings: foliar treatment, 30 days later, Zadocks growth stage 22-24
Protocol: Wheat, corn and pepper seeds were treated with 6-oxo-1,4,5,6-tetrahydropyridizine-3-carboxylic acid (THP) using the same methodology and growth conditions as described in example 1 and the resulting plants were also treated with a light foliar cover spray using an electric hand-held sprayer. (100 g in 200 L water plus 0.25% Nouryon wetter) of 6-oxo-1,4,5,6 tetrahydropyridazine-3-carboxylic acid (30 days post emergence (wheat at Zadoks GS 14 (see FIG. 1), maize at V2, Pepper at 3-4 leaf stage) and then assessed for root and shoot biomass 45 days later. At 75 days post planting the plants were assessed for root and shoot biomass as measured with dry weight. Greenhouse grown wheat plants (Variety […]) were given foliar treatment of 1-methyl 6-oxo-1,4,5,6 tetrahydropyridazine-3-carboxylic acid (MTHP) or 6-oxo-1,4,5,6 tetrahydropyridazine-3-carboxylic acid (THP), utilizing the same methodology as in example 2. Foliar and root biomass were determined 30 days later at Zadocks growth stage 22-24.

[3] = test system: Wheat plants (Variety AWC 13); test: Foliar treatment of wheat, foliar and root dry biomass (Example 5); settings: foliar treatment at Zadoks GS 15-20, 30 days after application, mean of 10 plants
Source text: Wheat plants (Variety AWC 13) were given a foliar treatment of 6-oxo-1,4,5,6-tetrahydropyridazine-3-carboxylic acid(THP) or 1-methyl 6-oxo-1,4,5,6 tetrahydropyridazine-3-carboxylic acid (MTHP) and their foliar and root dry biomass determined 30 days after application. The foliar applications were applied at approximately at Zadoks GS 15-20 (see FIG. 1) and assessed 30 days later at Zadoks GS 22-24 (also shown in FIG. 1).

[4] = test system: Field grown wheat plants (Var: AWC 13); test: Foliar treatment of field grown wheat (Example 6); settings: foliar treatment at Zadoks GS 25-26, 100 g in 200 L water, mean of 10 plants
Protocol: Field grown wheat plants (Var: AWC 13) were given foliar treatment at Zadoks GS 25-26 (FIG. 1) of 6-oxo-1,4,5,6 tetrahydropyridazine-3-carboxylic acid (THP) or 1-methyl 6-oxo-1,4,5,6 tetrahydropyridazine-3-carboxylic acid (MTHP) both at 100 g in 200 L water plus 0.25% Nouryon wetter. Plants were grown under standard UK wheat growing cultural practice (https://andb.org.uk/wheatgg). Yield was assessed at harvest.

[5] = test system: Wheat; test: Wheat seed treatment, field grown, root biomass (Example 7); settings: untreated 0.66
Protocol: Wheat seeds were treated with 1-methyl 6-oxo-1,4,5,6 tetrahydropyridazine-3-carboxylic acid treated plants to examine the impact on root biomass for field grown plants. Wheat seeds were treated with 1-methyl 6-oxo-1,4,5,6 tetrahydropyridazine-3-carboxylic acid and field grown. The plants from seeds treated with 1-methyl 6-oxo-1,4,5,6 tetrahydropyridazine-3-carboxylic acid had larger root biomass (0.84 g dry weight/plant) compared with plants from untreated seeds (0.66 g dry weight/plant).

## CN1N=C(C(=O)O)CCC1=O [MTHP, 1-methyl 6-oxo-1,4,5,6 tetrahydropyridazine-3-carboxylic acid]
[1]
  root biomass: 0.85 g, dry weight/plant
[2]; Con 0.55
  Dry Weight Shoot: 0.7 g
[2]; Con 1.03
  Dry Weight Root: 1.64 g
[3]; Con 0.47
  Dry Weight Shoot: 0.98
[3]; Con 0.65
  Dry Weight Root: 2.06
[4]; Con 0.47
  Dry Weight Shoot: 0.98
[4]; Con 0.65
  Dry Weight Root: 2.06
[5]
  root biomass: 0.84 g dry weight/plant
